Assay results reported in US20250082654A1, “AZD3355 (LESOGABERAN) FOR TREATMENT AND PREVENTION OF NONALCOHOLIC STEATOHEPATITIS (NASH), LIVER FIBROSIS, AND OTHER LIVER CONDITIONS” (Icahn School of Medicine at Mount Sinai, priority 2018, published 2025).

Assays:
phHSCs [1] = assay: Cell apoptosis assay (caspase-3/7 activity); type: cell-based, human; details: any dosage, 72 hours
Method: (§1) At the beginning of each experiment, stellate cells (LX-2 cells or phHSCs) were serum-starved overnight in DMEM supplied with 0.1% BSA (without antibiotic) to synchronize metabolic activities of the cells. The cells were then exposed to different working concentration of either AZD3355 or sorafenib for 24, 48 and 72 hours.
(§2) 5,000 LX-2 cells or 10,000 phHSCs were plated per well in 96-well clear bottom black plates. After overnight serum starvation in DMEM supplemented with 0.1% BSA (without antibiotic) the cells were exposed to AZD3355 at indicated concentration. For positive apoptotic control the cells were treated with 3% DMSO. After 72 hours of drug exposure the fluorescence signal of Caspase-3 and -7 activities were measured in Synergy HT (BioTek Instrument Inc., VT) spectrofluorometer by using Apo-ONE Homogeneous Caspase-3/7 Assay kit (Promega, WI) according to manufacturer's protocol.

LX-2 cells [2] = assay: Cell apoptosis assay (caspase-3/7 activity); type: cell-based, human; details: any dosage, 72 hours
Method: as §1, §2

NASH model mice = assay: NASH mouse model, histopathological scoring of liver sections; type: in vivo; details: for Hepatocyte ballooning ± SE: score 0-2; for Portal inflammation ± SE / Lobular Inflammation ± SE / Steatosis ± SE: score 0-3; for Fibrosis Stage ± SE: score 0-4; for NAFLD activity score (NAS) ± SE: score 0-8
Method: Four separate groups of mice were given either 0.5% methylcellulose (as Vehicle) or AZD3355 at 10 mg/kg (low dose) body weight of mice or 30 mg/kg (high dose) body weight of mice by twice daily (BID (5 days/week)) and OCA at 30 mg/kg body weight of mice by daily (QD (5 days/week)) through oral route for up to next 12 weeks (week 13 to week 24). Them last group of mice were not given any drug or vehicle treatment, as No Tx—24 weeks and maintained in parallel with treatment/vehicle groups. Usually all doses were given at early morning and the second daily dose of AZD3355 at evening (10 hours of intervals). All animals were closely monitored the health conditions and behavior.
A piece of tissue from large liver lobe was fixed in 10% Formalin Buffered (Astral Diagnostics Incorporated NJ) embedded in paraffin and microtome sectioning were performed. Slides containing tissue sections were baked at 60° C. for 1 hour and re-hydrated through xylene followed by graded ethanol (100%, 95%, 85% and 70%) into distilled water and processed in either Picrosirius red/Fast green or hematoxylin and eosin staining.
A total of 2 sections/animal were stained with H&E staining performed by standard protocol.
Steatosis, hepatocyte ballooning, lobular inflammation, portal inflammation and fibrosis of picroserious red/fast green and H&E stained liver section were scored according to the NASH Clinical Research Network (NASH CRN) scoring system in a blinded fashion by an expert hepato-pathologist in Icahn School of Medicine at Mount Sinai. NAFLD activity score (NAS) was calculated according to Brunt criteria and range from 0-8. NAS was calculated by the sum of scores of steatosis (0-3), hepatocyte ballooning (0-2) and lobular inflammation (0-3). NAS score of >5.0 strongly correlated with “definite-NASH” whereas <3 correlated with “not-NASH”. Fibrosis (0-4) or portal inflammation (0-3) scores were assessed separately and not included in NAS.

phHSCs [3] = assay: Cell cytotoxicity assay (MTS); type: cell-based, human; details: 30 nM or 100 nM, 48 or 72 hours
Method: as §1
(§3) 5,000 LX-2 cells or 10,000 phHSCs were plated per well in 96 well plates. Cells were serum starved overnight in DMEM supplemented with 0.1% BSA (without antibiotic). Cells were then incubated with different concentrations of AZD3355 for indicated durations and MTS assays were accomplished using CellTiter 96 AQueous One Solution Cell Proliferation Assay kit (Promega, WI) according to manufacturer's protocol.

LX-2 cells [4] = assay: Cell cytotoxicity assay (MTS); type: cell-based, human; details: 0-300 nM, 24, 48 or 72 hours
Method: as §1, §3

human liver slices = assay: Liver slice assay, histopathology and H&E staining; type: cell-based; details: 24 hours
Method: Ten human liver pieces were collected from the Mount Sinai biorepository. The samples were prepared by coring the liver with 8 mm cylindrical coring tools. The liver cores were kept in ice cold WE medium, with GlutaMAX supplemental. A liver core was then mounted on a specimen plate with cyanoacrylate adhesive. Liver slices (approximately 200 μm in thickness) were placed in ice cold Krebs-Henesleit buffer in the presence of carbogen gas. There was then a 1 hour pre-incubation in WE GlutaMAX media with gentamicin in 95% O2 and 5% CO2 at 37° C. in a humidified rocker chamber to restore ATP levels.
The liver slices were then cultured in WE GlutaMAX media with gentamicin in 95% O2 and 5% CO2 at 37° C. in a humidified rocker chamber with slow 70 rpm rocking in the presence of AZD3355 in the amounts of 250 nM, 500 nM, 1000 nM, or 2000 nM, or sorafenib at 1000 nM., or control vehicle (saline water).
After 24 hours, the tissue slices were harvested for either RNA isolation and quantitative PCR for measurements of Col1α1, TNFα, and IL-6 expression, or for histopathology and hematoxylin and eosin (H&E) staining as described in Example 3.

Which results are given for `NC[C@@H](F)C[PH](=O)O` [AZD3355, [(2R)-3-amino-2-fluoropropyl] phosphinic acid]?
apoptotic effect (caspase-3/7 activity) (phHSCs [1]): no apoptotic effect; apoptotic effect (caspase-3/7 activity) (LX-2 cells [2]): no apoptotic effect; Hepatocyte ballooning ± SE (NASH model mice; ♀ Mice, 10 mg/kg, vehicle 1.2 ± 0.1): 1.3 ± 0.1; Portal inflammation ± SE (NASH model mice; ♀ Mice, 10 mg/kg, vehicle 1.6 ± 0.1): 1.6 ± 0.1; Lobular Inflammation ± SE (NASH model mice; ♀ Mice, 10 mg/kg, vehicle 2.3 ± 0.1): 2.5 ± 0.1; Steatosis ± SE (NASH model mice; ♀ Mice, 10 mg/kg, vehicle 2.5 ± 0.1): 2.6 ± 0.1; Fibrosis Stage ± SE (NASH model mice; ♀ Mice, 10 mg/kg, vehicle 3.0 ± 0.1): 3.1 ± 0.1; NAFLD activity score (NAS) ± SE (NASH model mice; ♀ Mice, 10 mg/kg, vehicle 6.1 ± 0.4): 6.4 ± 0.4; Steatohepatitis Grade ± SE (NASH model mice; ♀ Mice, 10 mg/kg, vehicle 1.8 ± 0.2): 2.1 ± 0.2; Hepatocyte ballooning ± SE (NASH model mice; ♀ Mice, 30 mg/kg twice daily, vehicle 1.2 ± 0.1): 1.3 ± 0.1; Portal inflammation ± SE (NASH model mice; ♀ Mice, 30 mg/kg twice daily, vehicle 1.6 ± 0.1): 2.0 ± 0.0; Lobular Inflammation ± SE (NASH model mice; ♀ Mice, 30 mg/kg twice daily, vehicle 2.3 ± 0.1): 2.7 ± 0.1; Steatosis ± SE (NASH model mice; ♀ Mice, 30 mg/kg twice daily, vehicle 2.5 ± 0.1): 2.3 ± 0.1; Fibrosis Stage ± SE (NASH model mice; ♀ Mice, 30 mg/kg twice daily, vehicle 3.0 ± 0.1): 3.1 ± 0.1; NAFLD activity score (NAS) ± SE (NASH model mice; ♀ Mice, 30 mg/kg twice daily, vehicle 6.1 ± 0.4): 6.4 ± 0.3; Steatohepatitis Grade ± SE (NASH model mice; ♀ Mice, 30 mg/kg twice daily, vehicle 1.8 ± 0.2): 2.2 ± 0.2; Hepatocyte ballooning ± SE (NASH model mice; ♂ Mice, 10 mg/kg, vehicle 1.7 ± 0.1): 1.7 ± 0.1; Portal inflammation ± SE (NASH model mice; ♂ Mice, 10 mg/kg, vehicle 2.0 ± 0.1): 1.9 ± 0.0; Steatosis ± SE (NASH model mice; ♂ Mice, 10 mg/kg, vehicle 2.7 ± 0.1): 2.7 ± 0.1; Lobular Inflammation ± SE (NASH model mice; ♂ Mice, 10 mg/kg, vehicle 2.8 ± 0.1): 2.8 ± 0.1; Fibrosis Stage ± SE (NASH model mice; ♂ Mice, 10 mg/kg, vehicle 3.3 ± 0.1): 3.2 ± 0.1; NAFLD activity score (NAS) ± SE (NASH model mice; ♂ Mice, 10 mg/kg, vehicle 7.2 ± 0.3): 7.2 ± 0.3; Steatohepatitis Grade ± SE (NASH model mice; ♂ Mice, 10 mg/kg, vehicle 2.6 ± 0.2): 2.7 ± 0.1; Hepatocyte ballooning ± SE (NASH model mice; ♂ Mice, 30 mg/kg twice daily, vehicle 1.7 ± 0.1): 1.8 ± 0.1; Portal inflammation ± SE (NASH model mice; ♂ Mice, 30 mg/kg twice daily, vehicle 2.0 ± 0.1): 2.0 ± 0.2; Steatosis ± SE (NASH model mice; ♂ Mice, 30 mg/kg twice daily, vehicle 2.7 ± 0.1): 2.4 ± 0.1; Lobular Inflammation ± SE (NASH model mice; ♂ Mice, 30 mg/kg twice daily, vehicle 2.8 ± 0.1): 2.6 ± 0.2; Fibrosis Stage ± SE (NASH model mice; ♂ Mice, 30 mg/kg twice daily, vehicle 3.3 ± 0.1): 3.0 ± 0.0; NAFLD activity score (NAS) ± SE (NASH model mice; ♂ Mice, 30 mg/kg twice daily, vehicle 7.2 ± 0.3): 6.8 ± 0.5; Steatohepatitis Grade ± SE (NASH model mice; ♂ Mice, 30 mg/kg twice daily, vehicle 2.6 ± 0.2): 2.5 ± 0.2; cell cytotoxicity (MTS) (phHSCs [3]): no significant cell cytotoxicity; cell cytotoxicity (MTS) (LX-2 cells [4]): no significant cell cytotoxicity observed except for in LX-2 cells at 300 nM; liver cells viability (H&E) (human liver slices): did not change
